This assay can be described thus: Antagonist activity at human alpha-7 nicotinic acetylcholine receptor expressed in rat GH3 cells assessed as inhibition of epibatidine-induced Ca2+ influx preincubated for 5 mins followed by epibatidine induction measured for 3 mins by fluorescence assay.

Usually IC50 stands for the concentration that inhibits the measured activity by half.

Consider `COc1ccc(CC2C[N+]3(C)CCC2CC3)cc1` (stereo unspecified), for which the IC50 came out at 12.3 µM.

Source of the values: BindingDB's records for doi:10.1016/j.bmcl.2015.05.094 (Orleans University, 2015).
